Earlier results on two compounds are cited in patent US6395309B1, “Use of an extract of Alchemilla vulgaris to inhibit angiogenesis” (Weber & Weber GmbH & Co. KG, priority 1998, dated 2002).

For series [1] the following is noted: clinically tested.

As to `O=c1c(O)c(-c2ccc(O)cc2)oc2cc(O)cc(O)c12` [Campherol], the “histamine release from mast cells” value with mast cells is on record as “inhibits histamine release”.

Regarding `Cc1ccc(C(=O)Nc2ccc(S(=O)(=O)O)c3cc(S(=O)(=O)O)cc(S(=O)(=O)O)c23)cc1NC(=O)c1cccc(NC(=O)Nc2cccc(C(=O)Nc3cc(C(=O)Nc4ccc(S(=O)(=O)O)c5cc(S(=O)(=O)O)cc(S(=O)(=O)O)c45)ccc3C)c2)c1` [Sumarin], the “toxic effects on clinical testing” value in series [1] is on record as “therapeutic use is questionable because of toxic effects”.
